From ChEMBL document CHEMBL1909046, “DrugMatrix in vitro pharmacology data”

Columns and labels:
[1] = DRUGMATRIX: Calcium Channel Type L, Benzothiazepine radioligand binding (ligand: [3H] Diltiazem); format: cell membranes, Rattus norvegicus, Wistar, Brain, Membrane; settings: Not Active = under 50% inhibition at 10 µM
[2] = DRUGMATRIX: Potassium Channel [KATP] radioligand binding (ligand: [3H] Glyburide); format: cell membranes, Membrane; settings: hit-t15; Not Active = under 50% inhibition at 10 µM
[3] = DRUGMATRIX: ATPase, Na+/K+ enzyme inhibition (substrate: ATP); format: tissue-based, Sus scrofa, Heart; settings: Not Active = under 50% inhibition at 10 µM
Melanocortin receptor 4 = Melanocortin receptor 4 (Homo sapiens, UniProt P32245); format: cell membranes, Membrane; settings: hek293; further: in other assays of this panel Not Active means under 50% inhibition at 10 µM
[4] = molecular target: T1, Alpha-1B adrenergic receptor (Rattus norvegicus, UniProt P15823); test: DRUGMATRIX: Alpha-1B adrenergic receptor radioligand binding (ligand: prazosin); format: cell membranes, Wistar, Liver, Membrane; settings: Not Active = under 50% inhibition at 10 µM
T1 sequence (P15823 whole entry): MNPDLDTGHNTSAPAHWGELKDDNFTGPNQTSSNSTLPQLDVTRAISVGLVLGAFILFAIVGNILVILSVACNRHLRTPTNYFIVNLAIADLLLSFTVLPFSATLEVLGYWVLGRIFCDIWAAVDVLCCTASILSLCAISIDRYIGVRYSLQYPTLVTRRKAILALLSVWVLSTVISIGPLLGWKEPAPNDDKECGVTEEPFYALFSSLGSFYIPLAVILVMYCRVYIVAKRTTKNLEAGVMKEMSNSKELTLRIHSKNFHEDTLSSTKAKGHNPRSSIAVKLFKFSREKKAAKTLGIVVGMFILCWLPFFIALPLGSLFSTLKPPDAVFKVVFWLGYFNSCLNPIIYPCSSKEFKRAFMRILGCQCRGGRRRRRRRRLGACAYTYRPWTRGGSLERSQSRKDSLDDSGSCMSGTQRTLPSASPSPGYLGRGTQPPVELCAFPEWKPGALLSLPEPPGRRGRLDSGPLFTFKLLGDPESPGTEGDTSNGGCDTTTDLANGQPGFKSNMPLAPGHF

[5] = molecular target: T2, Receptor-type tyrosine-protein phosphatase C (Homo sapiens, UniProt P08575); parameters: species or system Escherichia coli;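 further: inhibition of CD45 enzyme activity measured using DiFMUP as substrate; in other assays of this panel Not Active means under 50% inhibition at 10 µM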
T2 sequence (P08575 whole entry): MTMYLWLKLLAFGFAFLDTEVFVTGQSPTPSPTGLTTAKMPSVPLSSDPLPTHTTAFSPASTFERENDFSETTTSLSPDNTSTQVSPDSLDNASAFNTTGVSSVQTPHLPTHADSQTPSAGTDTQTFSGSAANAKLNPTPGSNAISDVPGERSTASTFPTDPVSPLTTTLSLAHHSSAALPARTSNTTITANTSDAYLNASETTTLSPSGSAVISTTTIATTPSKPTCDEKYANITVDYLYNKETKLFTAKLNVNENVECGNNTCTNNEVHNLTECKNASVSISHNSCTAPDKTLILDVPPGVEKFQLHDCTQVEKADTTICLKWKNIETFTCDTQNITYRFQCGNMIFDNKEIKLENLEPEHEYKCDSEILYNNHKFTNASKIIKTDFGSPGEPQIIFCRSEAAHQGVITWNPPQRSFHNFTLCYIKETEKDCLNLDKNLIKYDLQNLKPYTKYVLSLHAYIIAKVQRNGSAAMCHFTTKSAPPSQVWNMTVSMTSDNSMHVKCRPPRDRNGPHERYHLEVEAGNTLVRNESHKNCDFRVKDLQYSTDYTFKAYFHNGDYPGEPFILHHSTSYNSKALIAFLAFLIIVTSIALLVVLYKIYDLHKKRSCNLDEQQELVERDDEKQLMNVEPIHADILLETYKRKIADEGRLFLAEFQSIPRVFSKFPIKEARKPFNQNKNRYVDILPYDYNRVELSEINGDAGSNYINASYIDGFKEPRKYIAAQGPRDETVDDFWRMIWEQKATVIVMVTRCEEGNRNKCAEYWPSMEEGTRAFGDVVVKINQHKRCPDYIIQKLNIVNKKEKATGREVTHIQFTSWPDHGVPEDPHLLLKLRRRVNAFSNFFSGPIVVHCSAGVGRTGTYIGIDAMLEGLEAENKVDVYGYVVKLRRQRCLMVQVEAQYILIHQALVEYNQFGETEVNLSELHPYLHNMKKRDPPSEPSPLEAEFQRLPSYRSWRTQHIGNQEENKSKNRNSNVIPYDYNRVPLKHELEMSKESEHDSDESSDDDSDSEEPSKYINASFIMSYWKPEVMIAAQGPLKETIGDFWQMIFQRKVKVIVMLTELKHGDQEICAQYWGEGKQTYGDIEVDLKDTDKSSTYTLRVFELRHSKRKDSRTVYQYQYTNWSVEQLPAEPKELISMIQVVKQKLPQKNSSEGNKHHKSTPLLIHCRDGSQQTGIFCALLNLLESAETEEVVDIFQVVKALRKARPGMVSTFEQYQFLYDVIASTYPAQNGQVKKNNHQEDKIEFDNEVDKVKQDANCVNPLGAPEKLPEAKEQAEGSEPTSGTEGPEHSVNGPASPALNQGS

Melanocortin receptor 4, sequence (P32245 whole entry): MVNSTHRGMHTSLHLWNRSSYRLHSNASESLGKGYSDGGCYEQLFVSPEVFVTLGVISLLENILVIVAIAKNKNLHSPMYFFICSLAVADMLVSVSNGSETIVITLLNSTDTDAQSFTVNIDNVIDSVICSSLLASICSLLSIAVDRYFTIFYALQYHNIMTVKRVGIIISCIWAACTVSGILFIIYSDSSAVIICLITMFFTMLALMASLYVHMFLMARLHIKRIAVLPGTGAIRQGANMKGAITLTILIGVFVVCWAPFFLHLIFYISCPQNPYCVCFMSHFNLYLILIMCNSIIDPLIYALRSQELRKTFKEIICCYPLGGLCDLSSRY

Row | SMILES | IC50 [1] | Ki [1] | IC50 [2] | Ki [2] | IC50 [3] | Ki [3] | IC50 (Melanocortin receptor 4) | IC50 [4] | IC50 [5] | IC50 ([4]; read-out: IC50) [nM] | Ki ([4]; read-out: Ki) [nM] | IC50 ([1]; read-out: IC50) [nM] | Ki ([1]; read-out: Ki) [nM]
1 | Cc1cccc(Nc2cc(Cl)nc(SCC(=O)O)n2)c1C [PIRINIXIC ACID] | Not Active | Not Active | Not Active | Not Active | Not Active | Not Active | Not Active | Not Active | Not Active | – | – | – | –
2 | CC(CCc1ccc(O)cc1)NCCc1ccc(O)c(O)c1 (stereo not given) [DOBUTAMINE] | Not Active | Not Active | Not Active | Not Active | Not Active | Not Active | Not Active | – | Not Active | 336 | 186 | – | –
3 | CC(C)(Sc1cc(C(C)(C)C)c(O)c(C(C)(C)C)c1)Sc1cc(C(C)(C)C)c(O)c(C(C)(C)C)c1 [PROBUCOL] | Not Active | Not Active | Not Active | Not Active | Not Active | Not Active | Not Active | Not Active | Not Active | – | – | – | –
4 | C/C=C\c1ccc(O)c(OC)c1 [ISOEUGENOL] | Not Active | Not Active | Not Active | Not Active | Not Active | Not Active | Not Active | Not Active | Not Active | – | – | – | –
5 | [N-]=[N+]=CC(=O)OC[C@H](N)C(=O)O [AZASERINE] | Not Active | Not Active | Not Active | Not Active | Not Active | Not Active | Not Active | Not Active | Not Active | – | – | – | –
6 | CCOC(=O)C1=C(C)NC(C)=C(C(=O)OC)C1c1cccc(Cl)c1Cl (stereo not given) [FELODIPINE] | – | – | Not Active | Not Active | Not Active | Not Active | Not Active | Not Active | Not Active | – | – | 23 | 20
7 | C[C@H](C(=O)O)c1cccc(C(=O)c2ccccc2)c1 [DEXKETOPROFEN] | Not Active | Not Active | Not Active | Not Active | Not Active | Not Active | Not Active | Not Active | Not Active | – | – | – | –
8 | Cc1cn[nH]c1 [FOMEPIZOLE] | Not Active | Not Active | Not Active | Not Active | Not Active | Not Active | Not Active | Not Active | Not Active | – | – | – | –
9 | O=c1cc(-c2ccccc2)oc2ccc3ccccc3c12 [BETA-NAPHTHOFLAVONE] | Not Active | Not Active | Not Active | Not Active | Not Active | Not Active | Not Active | Not Active | Not Active | – | – | – | –
10 | Cc1c(N(C)CS(=O)(=O)[O-])c(=O)n(-c2ccccc2)n1C.[Na+] [DIPYRONE SODIUM] | Not Active | Not Active | Not Active | Not Active | Not Active | Not Active | Not Active | Not Active | Not Active | – | – | – | –
11 | CN1C(=O)CN=C(c2ccccc2)c2cc(Cl)ccc21 [DIAZEPAM] | Not Active | Not Active | Not Active | Not Active | Not Active | Not Active | Not Active | Not Active | Not Active | – | – | – | –
